Source: US20210139497A1, “THIENOCYCLIC COMPOUND AND SYNTHESIS METHOD THEREFOR AND APPLICATION THEREOF” (SHANGHAI YUYAO BIOTECH LTD., priority 2017, published 2021)

Experiments:
[1] = test system: mouse colon cancer cells CT26; assay: CT26 subcutaneous tumor-bearing model, Balb/c mice; format: in vivo; settings: female Balb/c mice, 75 mg/kg/day, 14 days, vs negative control, FIG. 3
Procedure: 2×10^6 mouse colon cancer cells CT26 were subcutaneously injected into right side of each mouse's back (female Balb/c mouse, 6-8 weeks). The length and width of subcutaneous tumors in the back of mice were measured using vernier calipers, and tumor volume (mm^3)=(length(mm)×width(mm)×width(mm)×n)/6 was calculated. […] The volume of subcutaneous tumors on the back of mice was measured and counted twice a week. Continuous administrated for a period of 14 days and the changes of tumor volumes were recorded.
Mouse colon cancer cells MC38, pancreatic cancer cells Pan02, breast cancer cells 4T1, prostate cancer cells RM-1 and colon cancer cells CT26 were cultivated to required amount. Then, cells at a cell density of 5×10^5-2×10^6 were subcutaneously injected into right side of the back of selected female C57BL/6 mice aging 6-8 weeks (MC38, Pan02), male C57BL/6 mice aging 6-8 weeks (RM-1), female Balb/c mice aging 6-8 weeks (4T1, CT26) and female Balb/c nude mice aging 6-8 weeks (CT26). The length and width of subcutaneous tumors in the backs of mice were measured using vernier calipers, and tumor volume(mm^3)=(length(mm)×width(mm)×width(mm)×n)/6 was calculated. […] The volume of subcutaneous tumors on the back of mice was measured and counted 2-4 times a week. Continuous administrated for 12-22 days and the changes of tumor volumes were recorded.

[2] = test system: mouse models of colon cancer, breast cancer, pancreatic cancer and sarcoma; settings: Oncoimmunology 2017; cited from earlier work
[3] = target: T1, human PGE2 receptor EP4 subtype (hEP4) (Homo sapiens, UniProt P35408); assay: Calcium flux of human prostaglandin E2 receptor EP4 subtype; format: cell-based; settings: CHO-K1-Gα16 cells overexpressing hEP4, calcium flux activated by prostaglandin E2; read-out: hEP4 Ca^2+ IC50
T1 construct: expressed in transfected cells; host or cells: CHO-K1-Gα16
Procedure: (§1) CHO-K1-Gα16 cells at the logarithmic growth phase were transfected with EP4 overexpressing vector by Lipofectamine 2000 and then seeded in a 96-well plate (Falcon, CA) and cultured at 20000 cells per 100 μL culture medium overnight. On the second day, every single well were added with 100 μL calcium 5 detection reagents (Molecular Devices) and incubated in incubator at 37° C., 5% CO2 for 45 minutes. The compounds were diluted in HBSS detection buffer, then added to 96-well plates. After incubated for 20 min at room temperature away from light, certain concentration of prostaglandin E2 was used to activate calcium flux of cells for detection (Flexstation 3, MD, CA).
(§2) Calculate the IC50 of the compounds of the invention in inhibiting the calcium flux of human PGE2 receptor EP4 subtype (hEP4) and mouse PGE2 receptor EP4 subtype (mEP4) (i.e. the concentration of drugs at which the intracellular Ca^2+ flux is inhibited by half after overexpressing hEP4 and mEP4 receptors in CHO-K1-Gα16 cells). The IC50 of the drugs were calculated using GraphPad Prism 5.

[4] = target: T2, mouse PGE2 receptor EP4 subtype (mEP4) (Mus musculus, UniProt P32240); assay: Calcium flux of mouse prostaglandin E2 receptor EP4 subtype; format: cell-based; settings: CHO-K1-Gα16 cells overexpressing mEP4, calcium flux activated by prostaglandin E2; read-out: mEP4 Ca^2+ IC50
T2 construct: expressed in transfected cells; host or cells: CHO-K1-Gα16
Procedure: as §1, §2

[5] = Cytotoxicity evaluation (CCK8), LLC; settings: mouse, LLC lung cancer cells
Procedure: (§5) Cells with a density of 2000-8000 cells per 100 μL medium were seeded in 96-well plates (Falcon, CA) and incubated for 24 hours, then treated with drugs having different concentration gradient (at least 4 replicates per concentration) and incubated at 37° C. in 5% CO2 incubator for 72 hours. Then cell viability was detected by CCK8 method. That is to say, add 10 μL CCK8 to each well and incubate for 0.33-2 h, and the OD values are read by microplate reader at 450 nm. The inhibition rate on cell survival of compounds with each concentration were calculated.
(§6) Inhibition rate on cell survival=(OD value of groups with each concentration/OD
(§7) value of control group)×100%±standard deviation.
(§8) The IC50 of drugs were calculated using GraphPad Prism 5.0.

[6] = Cytotoxicity evaluation (CCK8), 293; settings: human
[7] = Cytotoxicity evaluation (CCK8), MOSJ; settings: mouse, MOSJ osteosarcoma cells
Procedure: as §5, §6, §7, §8

[8] = Cytotoxicity evaluation (CCK8), CT26; settings: mouse, CT26 intestinal cancer cells
Procedure: as §5, §6, §7, §8

[9] = Cytotoxicity evaluation (CCK8), EMT-6; settings: mouse, EMT-6 breast cancer cells
Procedure: as §5, §6, §7, §8

[10] = Cytotoxicity evaluation (CCK8), PANC02; settings: mouse, PANC02 pancreatic cancer cells
Procedure: as §5, §6, §7, §8

[11] = target: T3, human prostaglandin E2 receptor EP1 subtype (Homo sapiens, UniProt P34995); assay: Calcium flux of human prostaglandin E2 receptor EP1 subtype; format: cell-based; settings: CHO-K1-Gα16 cells overexpressing human EP1, activated by prostaglandin E2; read-out: hEP1 Ca^2+ IC50
T3 construct: expressed in transfected cells; host or cells: CHO-K1-Gα16
T3 sequence (P34995 1-402): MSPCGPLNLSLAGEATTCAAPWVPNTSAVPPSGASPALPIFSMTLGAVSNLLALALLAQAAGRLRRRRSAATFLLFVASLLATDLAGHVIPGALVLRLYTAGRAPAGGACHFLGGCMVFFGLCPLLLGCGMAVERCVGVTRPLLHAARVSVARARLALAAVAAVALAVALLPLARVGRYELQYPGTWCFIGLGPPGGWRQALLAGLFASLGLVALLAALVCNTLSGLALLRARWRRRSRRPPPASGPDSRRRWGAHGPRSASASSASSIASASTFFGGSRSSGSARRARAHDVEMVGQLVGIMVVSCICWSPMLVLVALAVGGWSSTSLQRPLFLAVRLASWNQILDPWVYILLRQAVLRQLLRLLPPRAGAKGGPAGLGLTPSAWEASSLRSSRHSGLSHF
Procedure: (§3) CHO-K1-Gα16 cells at the logarithmic growth phase were transfected with human prostaglandin E2 Receptor subtypes EP1, EP2 or EP3 overexpressing vector by Lipofectamine 2000, then seeded in a 96-well plate (Falcon, CA) at a density of 20000 cells per 100 μL culture medium for overnight culture. On the second day, every single well were added with 100 μL calcium 5 detection reagents (Molecular Devices) and incubated in incubator at 37° C., 5% CO2 for 45 minutes. The compounds were diluted with HBSS detection buffer, then were added to 96-well plates. After 20 min incubation at room temperature in the dark, prostaglandin E2 at certain concentration was used to activate calcium flux of cells for detection (Flexstation 3, MD, CA).
(§4) Calculate the IC50 of the compounds of the invention in inhibiting the calcium flux of human EP1, EP2, and EP3 receptor (i.e. the concentration of drugs at which the intracellular Ca^2+ flux being inhibited by half after overexpressing human EP1, EP2, and EP3 receptors in CHO-K1-Gα16 cells). The IC50 of the drugs were calculated using GraphPad Prism 5.

[12] = target: T4, human prostaglandin E2 receptor EP2 subtype (Homo sapiens, UniProt P43116); assay: Calcium flux of human prostaglandin E2 receptor EP2 subtype; format: cell-based; settings: CHO-K1-Gα16 cells overexpressing human EP2, activated by prostaglandin E2; read-out: hEP2 Ca^2+ IC50
T4 construct: expressed in transfected cells; host or cells: CHO-K1-Gα16
Procedure: as §3, §4

[13] = target: T5, human prostaglandin E2 receptor EP3 subtype (Homo sapiens, UniProt P43115); assay: Calcium flux of human prostaglandin E2 receptor EP3 subtype; format: cell-based; settings: CHO-K1-Gα16 cells overexpressing human EP3, activated by prostaglandin E2; read-out: hEP3 Ca^2+ IC50
T5 construct: expressed in transfected cells; host or cells: CHO-K1-Gα16
T5 sequence (P43115 1-390): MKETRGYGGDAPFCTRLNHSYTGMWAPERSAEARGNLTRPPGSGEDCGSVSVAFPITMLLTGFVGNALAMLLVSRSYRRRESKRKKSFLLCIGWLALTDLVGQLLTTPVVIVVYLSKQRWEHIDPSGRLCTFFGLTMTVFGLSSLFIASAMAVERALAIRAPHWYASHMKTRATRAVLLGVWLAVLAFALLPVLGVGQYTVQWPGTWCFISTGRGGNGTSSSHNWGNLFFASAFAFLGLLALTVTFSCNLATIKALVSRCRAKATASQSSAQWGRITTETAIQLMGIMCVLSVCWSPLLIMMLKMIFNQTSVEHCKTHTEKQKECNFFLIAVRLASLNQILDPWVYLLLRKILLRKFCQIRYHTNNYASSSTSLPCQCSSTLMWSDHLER
Procedure: as §3, §4

T2 sequence (P32240 whole entry): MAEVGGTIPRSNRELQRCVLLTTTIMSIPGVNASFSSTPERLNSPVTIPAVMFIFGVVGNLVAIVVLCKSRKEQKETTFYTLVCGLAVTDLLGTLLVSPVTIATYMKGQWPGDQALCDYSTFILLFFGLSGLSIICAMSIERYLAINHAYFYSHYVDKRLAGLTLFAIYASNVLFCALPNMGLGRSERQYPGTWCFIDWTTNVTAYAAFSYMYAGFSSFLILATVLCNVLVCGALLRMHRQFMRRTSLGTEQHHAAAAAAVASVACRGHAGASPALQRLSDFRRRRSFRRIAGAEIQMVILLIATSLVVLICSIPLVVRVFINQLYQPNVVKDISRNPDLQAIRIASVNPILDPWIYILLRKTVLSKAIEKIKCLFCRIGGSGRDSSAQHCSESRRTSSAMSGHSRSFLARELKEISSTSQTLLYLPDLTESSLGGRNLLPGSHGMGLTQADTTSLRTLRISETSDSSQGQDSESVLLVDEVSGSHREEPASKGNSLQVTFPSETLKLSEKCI
T4 sequence (P43116 whole entry): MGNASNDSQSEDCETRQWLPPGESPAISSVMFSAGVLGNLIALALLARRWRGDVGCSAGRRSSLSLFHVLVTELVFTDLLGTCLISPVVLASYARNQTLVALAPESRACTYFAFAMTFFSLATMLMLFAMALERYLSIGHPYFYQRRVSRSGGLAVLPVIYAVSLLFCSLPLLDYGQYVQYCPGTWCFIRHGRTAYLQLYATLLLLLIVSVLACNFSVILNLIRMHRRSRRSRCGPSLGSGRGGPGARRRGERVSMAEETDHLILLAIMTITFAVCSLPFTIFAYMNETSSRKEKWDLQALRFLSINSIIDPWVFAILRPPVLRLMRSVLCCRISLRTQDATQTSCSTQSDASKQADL
T1 sequence (P35408 whole entry): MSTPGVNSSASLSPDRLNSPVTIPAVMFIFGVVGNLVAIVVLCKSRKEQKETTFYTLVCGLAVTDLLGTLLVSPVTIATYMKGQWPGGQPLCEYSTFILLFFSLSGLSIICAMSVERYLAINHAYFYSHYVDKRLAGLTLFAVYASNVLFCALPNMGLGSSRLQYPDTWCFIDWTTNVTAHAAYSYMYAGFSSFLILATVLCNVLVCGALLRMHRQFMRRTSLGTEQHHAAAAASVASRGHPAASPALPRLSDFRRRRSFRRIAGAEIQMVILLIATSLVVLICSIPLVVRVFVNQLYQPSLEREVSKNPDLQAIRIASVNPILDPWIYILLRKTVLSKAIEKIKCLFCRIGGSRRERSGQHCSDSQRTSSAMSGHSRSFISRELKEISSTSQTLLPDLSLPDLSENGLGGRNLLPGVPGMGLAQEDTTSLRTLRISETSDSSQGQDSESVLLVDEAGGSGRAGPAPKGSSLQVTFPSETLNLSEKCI

Row | IC50 [3] [µM] | IC50 [11] [µM] | IC50 [12] [µM] | IC50 [13] [µM] | SMILES | Inhibitory effect on growth of subcutaneous CT26 colon cancer [1] | Inhibitory effects in mouse tumor models [2] | IC50 [4] [µM] | IC50 at 72 h [5] [µM] | IC50 at 72 h [6] [µM] | IC50 at 72 h [7] [µM] | IC50 at 72 h [8] [µM] | IC50 at 72 h [9] [µM] | IC50 at 72 h [10] [µM]
1 |  |  |  |  | C[C@H](NC(=O)c1c(C(F)F)nn(C)c1Oc1cccc(C(F)(F)F)c1)c1ccc(C(=O)O)cc1 [Compound E7046, reference compound] | comparable with that of E7046 | good inhibitory effects |  |  |  |  |  |  | 
2 | < 0.1 |  |  |  | C[C@H](NC(=O)c1c(CCc2ccc(F)cc2)sc2c1CCOC2)c1ccc(C(=O)O)cc1 [YJ106, (S)-4-(1-(2-(4-fluorophenethyl)-4,7-dihydro-5H-thieno[2,3-c]pyran-3-carboxamido)ethyl)benzoic Acid] | able to suppress the growth |  | < 0.1 | > 100 | > 100 | > 100 | > 100 | > 100 | > 100
3 | < 0.1 | > 10 | > 10 | > 10 | C[C@H](NC(=O)c1c(CCc2cccc(F)c2)sc2c1CCOC2)c1ccc(C(=O)O)cc1 [YJ113, (S)-4-(1-(2-(3-fluorophenethyl)-4,7-dihydro-5H-thieno[2,3-c]pyran-3-carboxamido)ethyl)benzoic Acid] |  |  | 0.1 to 1 | > 100 | > 100 | > 100 | > 100 | > 100 | > 100
4 |  |  |  |  | O=C(O)c1ccc(CNC(=O)c2c(Cc3ccc(F)cc3)sc3c2CCOC3)cc1 [YJ120, 4-((2-(4-fluorobenzyl)-4,7-dihydro-5H-thieno[2,3-c]pyran-3-carboxamido)methyl)benzoic Acid] | able to suppress the growth |  | < 0.1 | > 100 | > 100 | > 100 | > 100 | > 100 | > 100
5 | < 0.1 | 1 to 10 | 1 to 10 | 1 to 10 | C[C@H](NC(=O)c1c(NCc2ccc(C(F)(F)F)cc2)sc2c1CCOC2)c1ccc(C(=O)O)cc1 [YJ121, (S)-4-(1-(2-((4-(trifluoromethyl)benzyl)amino)-5,7-dihydro-4H-thieno[2,3-c]pyran-3-carboxamido)ethyl)benzoic Acid] |  |  | < 0.1 | 10 to 100 | 10 to 100 | 10 to 100 | 10 to 100 | 10 to 100 | 10 to 100

Row | SMILES | IC50 [3] [µM] | IC50 [11] [µM] | IC50 [12] [µM] | IC50 [13] [µM] | Inhibitory effect on growth of subcutaneous CT26 colon cancer [1] | Inhibitory effects in mouse tumor models [2] | IC50 [4] [µM] | IC50 at 72 h [5] [µM] | IC50 at 72 h [6] [µM] | IC50 at 72 h [7] [µM] | IC50 at 72 h [8] [µM] | IC50 at 72 h [9] [µM] | IC50 at 72 h [10] [µM]
6 | C[C@H](NC(=O)c1c(Cc2ccc(C(F)(F)F)cc2)sc2c1CCOC2)c1ccc(C(=O)O)cc1 [YJ115, (S)-4-(1-(2-(4-(trifluoromethyl)benzyl)-5,7-dihydro-4H-thieno[2,3-c]pyran-3-carboxamido)ethyl)benzoic Acid] | < 0.1 |  |  |  | able to suppress the growth |  | < 0.1 | > 100 | > 100 | > 100 | > 100 | > 100 | > 100
7 | C[C@H](NC(=O)c1c(Cc2cccc(C(F)(F)F)c2)sc2c1CCOC2)c1ccc(C(=O)O)cc1 [YJ116, (S)-4-(1-(2-(3-(trifluoromethyl)benzyl)-5,7-dihydro-4H-thieno[2,3-c]pyran-3-carboxamido)ethyl)benzoic Acid] | < 0.1 | > 10 | > 10 | > 10 | able to suppress the growth |  | < 0.1 | > 100 | > 100 | > 100 | > 100 | > 100 | > 100
